Laboratory results published in ChEMBL document CHEMBL1201862, “PubChem BioAssay data set” (2004).
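Assay format: 96-well plates, 48-hour exposure. GI50 = concentration required for 50% inhibition of growth.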 Activity calls are given as the source filed them. Cut-off read from the data, not from the text of the source: active = GI50 up to about 1.1 µM and inactive = higher.

How the values were obtained:
Experiment in all cases: NCI-60 cell line screen, 48 h
[1] = tested on: A549
[2] = tested on: CCRF-CEM
[3] = tested on: DU-145
[4] = tested on: IGROV-1
[5] = tested on: K562
[6] = tested on: KM12
[7] = tested on: LOX IMVI
[8] = tested on: M14
[9] = tested on: MCF7
[10] = tested on: NCI-H226
[11] = tested on: NCI-H522
[12] = tested on: OVCAR-8
[13] = tested on: PC-3
[14] = tested on: RXF 393
[15] = tested on: SF-268
[16] = tested on: SF-295
[17] = tested on: SNB-75
[18] = tested on: SW-620
[19] = tested on: TK-10
[20] = tested on: UO-31

Structure (SMILES) | GI50 [1] | GI50 [2] | GI50 [3] | GI50 [4] | GI50 [5] | GI50 [6] | GI50 [7] | GI50 [8] | GI50 [9] | GI50 [10] | GI50 [11] | GI50 [12] | GI50 [13] | GI50 [14] | GI50 [15] | GI50 [16] | GI50 [17] | GI50 [18] | GI50 [19] | GI50 [20]
COc1ccc2c3c1OC1C(OC)(OC)C=C[C@@]4(Br)[C@@H](C2)N(CC2CC2)CC[C@]314 (stereo partly specified) | 95.7 µM (inactive) | 86.9 µM (inactive) | > 100 µM (inactive) | 62.2 µM (inactive) | 52.8 µM (inactive) | > 100 µM (inactive) | 87.9 µM (inactive) | 27.1 µM (inactive) | 52.1 µM (inactive) | 58.5 µM (inactive) | 21 µM (inactive) | 61.4 µM (inactive) | 99.1 µM (inactive) | 76.4 µM (inactive) | 32.1 µM (inactive) | > 100 µM (inactive) | 96.4 µM (inactive) | 33.7 µM (inactive) | > 100 µM (inactive) | 35.2 µM (inactive)
O=C1OC2(c3ccc(O)cc3Oc3cc(O)ccc32)c2c1c(-c1ccccc1)c(-c1ccccc1)c(-c1ccccc1)c2-c1ccccc1 | 34.5 µM (inactive) | – | 17.2 µM (inactive) | 19.1 µM (inactive) | 29.6 µM (inactive) | 17.1 µM (inactive) | 18.5 µM (inactive) | 18.2 µM (inactive) | 17.1 µM (inactive) | 46.3 µM (inactive) | 18.2 µM (inactive) | 22.4 µM (inactive) | 17.9 µM (inactive) | 23.7 µM (inactive) | 22.2 µM (inactive) | 21.6 µM (inactive) | 18.7 µM (inactive) | 20.9 µM (inactive) | 23.7 µM (inactive) | 25.7 µM (inactive)
CN1CCN([C@H]2C[C@H]3[C@@H]4CC=C5C[C@@H](O)CC[C@]5(C)[C@H]4CC[C@]3(C)[C@H]2O)CC1 | > 100 µM (inactive) | 25 µM (inactive) | > 100 µM (inactive) | > 90.8 µM (inactive) | 19 µM (inactive) | > 53.8 µM (inactive) | > 43.4 µM (inactive) | 17.5 µM (inactive) | > 45.6 µM (inactive) | > 100 µM (inactive) | > 100 µM (inactive) | > 42.8 µM (inactive) | > 51.2 µM (inactive) | 16.9 µM (inactive) | > 41.7 µM (inactive) | > 78.3 µM (inactive) | > 49.2 µM (inactive) | 20.7 µM (inactive) | > 100 µM (inactive) | > 100 µM (inactive)
c1ccc2c(CN3CCN(Cc4c[nH]c5ccccc45)CC3)c[nH]c2c1 | – | 39.9 µM (inactive) | 18.3 µM (inactive) | 11.9 µM (inactive) | 12.7 µM (inactive) | 16.8 µM (inactive) | 16.3 µM (inactive) | 15.7 µM (inactive) | 17.9 µM (inactive) | 16.5 µM (inactive) | 16.5 µM (inactive) | 19 µM (inactive) | 18.6 µM (inactive) | 14.3 µM (inactive) | 17.4 µM (inactive) | 16 µM (inactive) | 13.3 µM (inactive) | 28 µM (inactive) | 15.6 µM (inactive) | 14.6 µM (inactive)
O=C(N/N=C(COc1ccccc1Cl)\N=C\c1cccnc1)c1ccncc1 | > 100 µM (inactive) | > 100 µM (inactive) | > 100 µM (inactive) | > 100 µM (inactive) | > 100 µM (inactive) | > 100 µM (inactive) | > 100 µM (inactive) | > 100 µM (inactive) | > 100 µM (inactive) | > 100 µM (inactive) | > 100 µM (inactive) | > 100 µM (inactive) | > 100 µM (inactive) | > 100 µM (inactive) | > 100 µM (inactive) | > 100 µM (inactive) | > 100 µM (inactive) | > 100 µM (inactive) | > 100 µM (inactive) | –
O=C(Oc1ccc(S(=O)(=O)F)cc1F)c1ccccc1Cl | 35.5 µM (inactive) | – | 28.1 µM (inactive) | 30.8 µM (inactive) | 42.1 µM (inactive) | 30.4 µM (inactive) | 31.8 µM (inactive) | 30.8 µM (inactive) | 29.5 µM (inactive) | 31 µM (inactive) | 18.3 µM (inactive) | 30.8 µM (inactive) | 37.8 µM (inactive) | 21.3 µM (inactive) | 32.5 µM (inactive) | 32.1 µM (inactive) | 24.9 µM (inactive) | 44.3 µM (inactive) | 43.1 µM (inactive) | 18.5 µM (inactive)
COc1cc(CCN(C)C)cc(OC)c1OC | > 100 µM (inactive) | > 100 µM (inactive) | > 100 µM (inactive) | > 100 µM (inactive) | > 100 µM (inactive) | > 100 µM (inactive) | > 100 µM (inactive) | > 100 µM (inactive) | > 100 µM (inactive) | > 100 µM (inactive) | > 100 µM (inactive) | > 100 µM (inactive) | > 100 µM (inactive) | > 100 µM (inactive) | > 100 µM (inactive) | > 100 µM (inactive) | > 100 µM (inactive) | > 100 µM (inactive) | > 100 µM (inactive) | –
Cc1ccc(NC(=O)/C=C/c2ccccc2)c(C)c1 | > 100 µM (inactive) | > 100 µM (inactive) | > 100 µM (inactive) | – | > 100 µM (inactive) | > 100 µM (inactive) | > 100 µM (inactive) | > 100 µM (inactive) | > 100 µM (inactive) | 13.9 µM (inactive) | 30 µM (inactive) | 37.3 µM (inactive) | > 100 µM (inactive) | – | 52 µM (inactive) | – | 24.9 µM (inactive) | > 100 µM (inactive) | > 100 µM (inactive) | –
COC(=O)[C@@H](N1C(=O)c2ccccc2C1=O)C1(C)CC(Cl)=NO1 (stereo partly specified) | 86.1 µM (inactive) | > 100 µM (inactive) | 44 µM (inactive) | 17.7 µM (inactive) | > 100 µM (inactive) | > 100 µM (inactive) | – | > 100 µM (inactive) | 53.6 µM (inactive) | 38.8 µM (inactive) | 35 µM (inactive) | 19.1 µM (inactive) | > 100 µM (inactive) | 41.5 µM (inactive) | 29.3 µM (inactive) | 28.1 µM (inactive) | 17.8 µM (inactive) | > 100 µM (inactive) | 31.1 µM (inactive) | > 100 µM (inactive)
N#C/C(=C/NC(=S)NCc1ccccc1)C(N)=O | > 100 µM (inactive) | > 100 µM (inactive) | > 100 µM (inactive) | > 100 µM (inactive) | > 100 µM (inactive) | > 100 µM (inactive) | > 100 µM (inactive) | > 100 µM (inactive) | > 100 µM (inactive) | > 100 µM (inactive) | > 100 µM (inactive) | > 100 µM (inactive) | > 100 µM (inactive) | > 100 µM (inactive) | > 100 µM (inactive) | > 100 µM (inactive) | > 100 µM (inactive) | > 100 µM (inactive) | – | 50.1 µM (inactive)
O=C(O)CCC1(c2ccccc2)NC(=O)NC1=O (stereo unspecified) | > 100 µM (inactive) | > 100 µM (inactive) | > 100 µM (inactive) | > 100 µM (inactive) | > 100 µM (inactive) | > 100 µM (inactive) | > 100 µM (inactive) | – | > 100 µM (inactive) | > 100 µM (inactive) | > 100 µM (inactive) | > 100 µM (inactive) | > 100 µM (inactive) | > 100 µM (inactive) | > 100 µM (inactive) | > 100 µM (inactive) | > 100 µM (inactive) | > 100 µM (inactive) | > 100 µM (inactive) | –
CCN(CC)CCCNc1nncc2c(C)c3[nH]c4ccccc4c3cc12 | 0.67 µM (active) | 0.02 µM (active) | 0.706 µM (active) | 0.617 µM (active) | – | 0.667 µM (active) | 0.242 µM (active) | 1.89 µM (inactive) | 0.331 µM (active) | 0.255 µM (active) | 0.16 µM (active) | 0.685 µM (active) | 0.705 µM (active) | 1.63 µM (inactive) | – | 2.74 µM (inactive) | 1.41 µM (inactive) | – | 4.52 µM (inactive) | 5.79 µM (inactive)
COC(=N)c1ncn(Cc2ccccc2)c1N | > 100 µM (inactive) | > 100 µM (inactive) | > 100 µM (inactive) | > 100 µM (inactive) | > 100 µM (inactive) | > 100 µM (inactive) | > 100 µM (inactive) | > 100 µM (inactive) | > 100 µM (inactive) | > 100 µM (inactive) | > 100 µM (inactive) | > 100 µM (inactive) | > 100 µM (inactive) | > 100 µM (inactive) | > 100 µM (inactive) | > 100 µM (inactive) | > 100 µM (inactive) | > 100 µM (inactive) | > 100 µM (inactive) | –
CC(C)(C)OC(=O)NC(Cc1ccc(OCc2ccccc2)cn1)C(=O)NCc1ccccc1 (stereo unspecified) | 36.6 µM (inactive) | 12.4 µM (inactive) | 40.5 µM (inactive) | 32.3 µM (inactive) | 22.1 µM (inactive) | 29.7 µM (inactive) | 19.1 µM (inactive) | 25.8 µM (inactive) | 29.5 µM (inactive) | – | 17.1 µM (inactive) | 26.3 µM (inactive) | 20.4 µM (inactive) | 27.9 µM (inactive) | 23.6 µM (inactive) | 21.2 µM (inactive) | 27.1 µM (inactive) | 31.3 µM (inactive) | 30.3 µM (inactive) | 34.7 µM (inactive)
Nc1cc2c(c3ccccc13)C(CCl)CN2C(=O)c1cc2cc(NC(=O)c3cc4ccccc4o3)ccc2[nH]1 (stereo unspecified) | 0.000891 µM (active) | 0.00194 µM (active) | 0.000679 µM (active) | 0.00578 µM (active) | – | 0.00296 µM (active) | 0.00262 µM (active) | 0.00455 µM (active) | 0.00075 µM (active) | 0.11 µM (active) | 0.000925 µM (active) | 0.000408 µM (active) | 0.00513 µM (active) | 0.11 µM (active) | 0.00195 µM (active) | 0.11 µM (active) | 0.00294 µM (active) | 0.00456 µM (active) | 0.00429 µM (active) | 0.00128 µM (active)
